# Results: patent US4609730A, “7-[substituted imino-2-(2-aminothiazol-4-yl)-acetamido]-3(2,2-dihalovinyl or ethynyl)-3-cephem-4-carboxylic acid (syn isomers), having antimicrobial activities” (Fujisawa Pharmaceutical Co., Ltd., priority 1982, dated 1986)
# What was measured:
# in vivo = conditions: rat, po, 100 mg/kg
# Procedure: Rats anesthetized with pentobarbital were fixed in supine position, and a polyethylene cannula was inserted into the bile duct. Bile samples were collected at 0 to 3, 3 to 6, and 6 to 24 hours after oral administration of 100 mg/kg of the test antibiotic. The antibiotic levels in the bile samples were bioassayed with the standard solution prepared with M/15 phosphate buffer (pH 7.0) and the biliary recovery in 24 hours were calculated.
# Proteus mirabilis 18 = test: Minimal inhibitory concentration (MIC), two-fold agar-plate dilution method, Proteus mirabilis 18; assay type: cell-based; conditions: HI-agar, 37° C., 20 hours, 10^8 viable cells per ml
# Procedure: (§1) In vitro antibacterial activity was determined by the two-fold agar-plate dilution method as described below.
# (§2) One loopful of an overnight culture of each test strain in Trypticase-soy broth (10^8 viable cells per ml) was streaked on heart infusion agar (HI-agar) containing graded concentrations of representative test compound, and the minimal inhibitory concentration (MIC) was expressed in terms of μg/ml after incubation at 37° C. for 20 hours.
# Proteus vulgaris 2 = test: Minimal inhibitory concentration (MIC), two-fold agar-plate dilution method, Proteus vulgaris 2; assay type: cell-based; conditions: HI-agar, 37° C., 20 hours, 10^8 viable cells per ml
# Procedure: as §1, §2
# [1] = Urinary excretion in rats after oral administration; assay type: in vivo; conditions: rat, 100 mg/kg, urine 0-24 hours, bioassay, read-out: Urinary recovery in 24 hours
# Procedure: Urine of rats was collected with a urine collector at 0 to 6, and 6 to 24 hours after oral administration of 100 mg/kg of the test antibiotic. The antibiotic levels in the urine samples were bioassayed with the standard solution prepared with M/15 phosphate buffer pH 7.0) and the urinary recovery in 24 hours was calculated.
# Klebsiella pneumoniae 20 = test: Minimal inhibitory concentration (MIC), two-fold agar-plate dilution method, Klebsiella pneumoniae 20; assay type: cell-based; conditions: HI-agar, 37° C., 20 hours, 10^8 viable cells per ml
# Procedure: as §1, §2
SMILES,dose excreted at 24 h (in vivo) [%],MIC (Proteus mirabilis 18) [µg/mL],MIC (Proteus vulgaris 2) [µg/mL],dose excreted at 24 h [1] [%],MIC (Klebsiella pneumoniae 20) [µg/mL]
"C#CC1=C(C(=O)O)N2C(=O)C(NC(=O)/C(=N\OCC(=O)O)c3csc(N)n3)C2SC1 (stereo not drawn) [A, 7-[2-Carboxymethoxyimino-2-(2-aminothiazol-4-yl)-acetamido]-3-ethynyl-3-cephem-4-carboxylic acid (syn isomer)]",7.46,0.05,0.025,20,0.1
"CO/N=C(\C(=O)NC1C(=O)N2C(C(=O)O)=C(C=C(Cl)Cl)CSC12)c1csc(N)n1 (stereo not drawn) [B, 7-[2-Methoxyimino-2-(2-aminothiazol-4-yl)acetamido]-3-(2,2-dichlorovinyl)-3-cephem-4-carboxylic acid (syn isomer)]",–,0.05,0.025,–,0.025
